PMC12274840 (The Journal of Biological Chemistry, 2025)
Values after ≈ are worked out from the molar mass of the structure shown. Where two headings read alike, the source gives them in different places.

Tests used:
Type in all cases: cell-based
[1] = tested on: E. coli KA797 cells carrying TEM-1 position 105 library; details: for Fi MEM AVG: average of replicates
[2] = tested on: E. coli KA797 cells carrying pUK21 with BlaC WT (Tat); experiment: microbe, parasite or virus in culture; details: Escherichia coli, antibiotic alone
[3] = tested on: E. coli KA797 cells carrying pUK21 with NmcA (pelB/Sec); experiment: microbe, parasite or virus in culture; details: Escherichia coli, antibiotic alone
[4] = tested on: E. coli KA797 cells carrying CTX-M-14 position 105 library; details: CTX-M-14 WT (Tyr 105)
[5] = tested on: E. coli KA797 cells carrying KPC-2 position 105 library; details: selection with labelled antibiotic
[6] = KPC-2 AA 105 = Trp (WT, reference)

C[C@@H](O)[C@H]1C(=O)N2C(C(=O)O)=C(S[C@@H]3CN[C@H](C(=O)N(C)C)C3)[C@H](C)[C@H]12 [meropenem] was tested, and the “Fi MEM AVG” value ([1]; AA 105 Ala) was 0.062, the “Fi MEM 1” value ([1]; AA 105 Ala, replicate 1) was 0.046 and the “Fi MEM 2” value ([1]; AA 105 Ala, replicate 2) was 0.488. The “Fi MEM 3” value ([1]; AA 105 Ala, replicate 3) was -0.350, the “Fi MEM AVG” value ([1]; AA 105 Arg) was 0.048 and the “Fi MEM 1” value ([1]; AA 105 Arg, replicate 1) was 0.163. The “Fi MEM 2” value ([1]; AA 105 Arg, replicate 2) was 0.269, the “Fi MEM 3” value ([1]; AA 105 Arg, replicate 3) was -0.287 and the “Fi MEM AVG” value ([1]; AA 105 Asn) was -0.031. The “Fi MEM 1” value ([1]; AA 105 Asn, replicate 1) was -0.022, the “Fi MEM 2” value ([1]; AA 105 Asn, replicate 2) was 0.493 and the “Fi MEM 3” value ([1]; AA 105 Asn, replicate 3) was -0.563. The “Fi MEM AVG” value ([1]; AA 105 Asp) was -0.366, the “Fi MEM 1” value ([1]; AA 105 Asp, replicate 1) was -1.030 and the “Fi MEM 2” value ([1]; AA 105 Asp, replicate 2) was 0.356. The “Fi MEM 3” value ([1]; AA 105 Asp, replicate 3) was -0.424, the “Fi MEM AVG” value ([1]; AA 105 Cys) was 0.031 and the “Fi MEM 1” value ([1]; AA 105 Cys, replicate 1) was 0.333. For the same compound, the “Fi MEM 2” value ([1]; AA 105 Cys, replicate 2) was 0.230, the “Fi MEM 3” value ([1]; AA 105 Cys, replicate 3) was -0.470 and the “Fi MEM AVG” value ([1]; AA 105 Gln) was -0.069. The “Fi MEM 1” value ([1]; AA 105 Gln, replicate 1) was -0.210, the “Fi MEM 2” value ([1]; AA 105 Gln, replicate 2) was 0.084 and the “Fi MEM 3” value ([1]; AA 105 Gln, replicate 3) was -0.080. The “Fi MEM AVG” value ([1]; AA 105 Glu) was -0.063, the “Fi MEM 1” value ([1]; AA 105 Glu, replicate 1) was -0.084 and the “Fi MEM 2” value ([1]; AA 105 Glu, replicate 2) was 0.140. The “Fi MEM 3” value ([1]; AA 105 Glu, replicate 3) was -0.245, the “Fi MEM AVG” value ([1]; AA 105 Gly) was -0.130 and the “Fi MEM 1” value ([1]; AA 105 Gly, replicate 1) was -0.195. The “Fi MEM 2” value ([1]; AA 105 Gly, replicate 2) was 0.032, the “Fi MEM 3” value ([1]; AA 105 Gly, replicate 3) was -0.226 and the “Fi MEM AVG” value ([1]; AA 105 His) was -0.172. The “Fi MEM 1” value ([1]; AA 105 His, replicate 1) was -0.391, the “Fi MEM 2” value ([1]; AA 105 His, replicate 2) was 0.351 and the “Fi MEM 3” value ([1]; AA 105 His, replicate 3) was -0.475. The “Fi MEM AVG” value ([1]; AA 105 Ile) was 0.078, the “Fi MEM 1” value ([1]; AA 105 Ile, replicate 1) was 0.231 and the “Fi MEM 2” value ([1]; AA 105 Ile, replicate 2) was 0.143. The “Fi MEM 3” value ([1]; AA 105 Ile, replicate 3) was -0.140, the “Fi MEM AVG” value ([1]; AA 105 Leu) was -0.036 and the “Fi MEM 1” value ([1]; AA 105 Leu, replicate 1) was -0.102. The “Fi MEM 2” value ([1]; AA 105 Leu, replicate 2) was 0.170, the “Fi MEM 3” value ([1]; AA 105 Leu, replicate 3) was -0.177 and the “Fi MEM AVG” value ([1]; AA 105 Lys) was -0.052. For the same compound, the “Fi MEM 1” value ([1]; AA 105 Lys, replicate 1) was -0.122, the “Fi MEM 2” value ([1]; AA 105 Lys, replicate 2) was 0.122 and the “Fi MEM 3” value ([1]; AA 105 Lys, replicate 3) was -0.155. The “Fi MEM AVG” value ([1]; AA 105 Met) was -0.379, the “Fi MEM 1” value ([1]; AA 105 Met, replicate 1) was -0.840 and the “Fi MEM 2” value ([1]; AA 105 Met, replicate 2) was 0.139. For the same compound, the “Fi MEM 3” value ([1]; AA 105 Met, replicate 3) was -0.436, the “Fi MEM AVG” value ([1]; AA 105 Phe) was -0.175 and the “Fi MEM 1” value ([1]; AA 105 Phe, replicate 1) was 0.171. The “Fi MEM 2” value ([1]; AA 105 Phe, replicate 2) was -0.315, the “Fi MEM 3” value ([1]; AA 105 Phe, replicate 3) was -0.381 and the “Fi MEM AVG” value ([1]; AA 105 Pro) was -0.026. The “Fi MEM 1” value ([1]; AA 105 Pro, replicate 1) was 0.015, the “Fi MEM 2” value ([1]; AA 105 Pro, replicate 2) was 0.091 and the “Fi MEM 3” value ([1]; AA 105 Pro, replicate 3) was -0.184. For the same compound, the “Fi MEM AVG” value ([1]; AA 105 Ser) was -0.010, the “Fi MEM 1” value ([1]; AA 105 Ser, replicate 1) was 0.139 and the “Fi MEM 2” value ([1]; AA 105 Ser, replicate 2) was 0.033. For the same compound, the “Fi MEM 3” value ([1]; AA 105 Ser, replicate 3) was -0.203, the “Fi MEM AVG” value ([1]; AA 105 Thr) was -0.084 and the “Fi MEM 1” value ([1]; AA 105 Thr, replicate 1) was -0.289. The “Fi MEM 2” value ([1]; AA 105 Thr, replicate 2) was 0.235, the “Fi MEM 3” value ([1]; AA 105 Thr, replicate 3) was -0.199 and the “Fi MEM AVG” value ([1]; AA 105 Trp) was -0.176. For the same compound, the “Fi MEM 1” value ([1]; AA 105 Trp, replicate 1) was -0.657, the “Fi MEM 2” value ([1]; AA 105 Trp, replicate 2) was 0.184 and the “Fi MEM 3” value ([1]; AA 105 Trp, replicate 3) was -0.056. The “Fi MEM AVG” value ([1]; AA 105 Tyr) was 0.000, the “Fi MEM 1” value ([1]; AA 105 Tyr, replicate 1) was 0.000 and the “Fi MEM 2” value ([1]; AA 105 Tyr, replicate 2) was 0.000. For the same compound, the “Fi MEM 3” value ([1]; AA 105 Tyr, replicate 3) was 0.000, the “Fi MEM AVG” value ([1]; AA 105 Val) was -0.088 and the “Fi MEM 1” value ([1]; AA 105 Val, replicate 1) was -0.115. The “Fi MEM 2” value ([1]; AA 105 Val, replicate 2) was 0.193, the “Fi MEM 3” value ([1]; AA 105 Val, replicate 3) was -0.342 and the “WT abs Fi 1” value ([1]; absolute fitness of TEM-1 WT, MEM, replicate 1) was 0.006. The “WT abs Fi 2” value ([1]; absolute fitness of TEM-1 WT, MEM, replicate 2) was -0.204, the “WT abs Fi 3” value ([1]; absolute fitness of TEM-1 WT, MEM, replicate 3) was 0.439 and the MIC [2] was 0.1 µg/mL (≈ 0.261 µM). For the same compound, the MIC [3] was 1.6 µg/mL (≈ 4.17 µM), the “WT abs Fi 1 (absolute fitness of wild type, Replicate 1)” value [4] was -0.645 and the “WT abs Fi 2 (absolute fitness of wild type, Replicate 2)” value [4] was -0.807. For the same compound, the “Fi (relative fitness), Replicate 1” value ([5]; KPC-2 AA 105 = Ala) was 0.581, the “Fi AVG (average fitness of replicates)” value ([5]; KPC-2 AA 105 = Ala) was 0.217 and the “Fi (relative fitness), Replicate 1” value ([5]; KPC-2 AA 105 = Arg) was 0.240. For the same compound, the “Fi AVG (average fitness of replicates)” value ([5]; KPC-2 AA 105 = Arg) was 0.280, the “Significance of average fitness” value ([5]; KPC-2 AA 105 = Arg) was “+” and the “Fi (relative fitness), Replicate 1” value ([5]; KPC-2 AA 105 = Asn) was 0.449. The “Fi AVG (average fitness of replicates)” value ([5]; KPC-2 AA 105 = Asn) was 0.201, the “Fi (relative fitness), Replicate 1” value ([5]; KPC-2 AA 105 = Asp) was -0.690 and the “Fi AVG (average fitness of replicates)” value ([5]; KPC-2 AA 105 = Asp) was -0.489. For the same compound, the “Fi (relative fitness), Replicate 1” value ([5]; KPC-2 AA 105 = Cys) was -0.271, the “Fi AVG (average fitness of replicates)” value ([5]; KPC-2 AA 105 = Cys) was -0.750 and the “Significance of average fitness” value ([5]; KPC-2 AA 105 = Cys) was “-”. For the same compound, the “Fi (relative fitness), Replicate 1” value ([5]; KPC-2 AA 105 = Gln) was -0.624, the “Fi AVG (average fitness of replicates)” value ([5]; KPC-2 AA 105 = Gln) was -1.307 and the “Significance of average fitness” value ([5]; KPC-2 AA 105 = Gln) was “-”. For the same compound, the “Fi (relative fitness), Replicate 1” value ([5]; KPC-2 AA 105 = Glu) was -0.509, the “Fi AVG (average fitness of replicates)” value ([5]; KPC-2 AA 105 = Glu) was -0.226 and the “Fi AVG (average fitness of replicates)” value ([5]; KPC-2 AA 105 = Gly) was -0.037. The “Fi (relative fitness), Replicate 1” value ([5]; KPC-2 AA 105 = His) was -1.077, the “Fi AVG (average fitness of replicates)” value ([5]; KPC-2 AA 105 = His) was -0.525 and the “Fi (relative fitness), Replicate 1” value ([5]; KPC-2 AA 105 = Ile) was 0.107. For the same compound, the “Fi AVG (average fitness of replicates)” value ([5]; KPC-2 AA 105 = Ile) was 0.391, the “Significance of average fitness” value ([5]; KPC-2 AA 105 = Ile) was “+” and the “Fi (relative fitness), Replicate 1” value ([5]; KPC-2 AA 105 = Leu) was -0.731. For the same compound, the “Fi AVG (average fitness of replicates)” value ([5]; KPC-2 AA 105 = Leu) was -0.210, the “Fi (relative fitness), Replicate 1” value ([5]; KPC-2 AA 105 = Lys) was 0.268 and the “Fi AVG (average fitness of replicates)” value ([5]; KPC-2 AA 105 = Lys) was -0.089. The “Fi (relative fitness), Replicate 1” value ([5]; KPC-2 AA 105 = Met) was -1.083, the “Fi AVG (average fitness of replicates)” value ([5]; KPC-2 AA 105 = Met) was -0.791 and the “Fi (relative fitness), Replicate 1” value ([5]; KPC-2 AA 105 = Phe) was -0.159. For the same compound, the “Fi AVG (average fitness of replicates)” value ([5]; KPC-2 AA 105 = Phe) was 0.248, the “Fi (relative fitness), Replicate 1” value ([5]; KPC-2 AA 105 = Pro) was -0.148 and the “Fi AVG (average fitness of replicates)” value ([5]; KPC-2 AA 105 = Pro) was -1.195. The “Significance of average fitness” value ([5]; KPC-2 AA 105 = Pro) was “-”, the “Fi (relative fitness), Replicate 1” value ([5]; KPC-2 AA 105 = Ser) was 0.279 and the “Fi AVG (average fitness of replicates)” value ([5]; KPC-2 AA 105 = Ser) was -0.239. For the same compound, the “Fi AVG (average fitness of replicates)” value ([5]; KPC-2 AA 105 = Thr) was -0.051, the “Fi (relative fitness), Replicate 1” value [5, 6] was 0.000 and the “Fi AVG (average fitness of replicates)” value [5, 6] was 0.000. The “Fi (relative fitness), Replicate 1” value ([5]; KPC-2 AA 105 = Tyr) was 0.109, the “Fi AVG (average fitness of replicates)” value ([5]; KPC-2 AA 105 = Tyr) was -0.474 and the “Fi (relative fitness), Replicate 1” value ([5]; KPC-2 AA 105 = Val) was -1.754. The “Fi AVG (average fitness of replicates)” value ([5]; KPC-2 AA 105 = Val) was -0.973, the “WT abs Fi 1 (absolute fitness)” value ([5]; KPC-2 WT (Trp 105), replicate 1) was 0.081 and the “WT abs Fi 2 (absolute fitness)” value ([5]; KPC-2 WT (Trp 105), replicate 2) was -0.069. The “WT abs Fi 3 (absolute fitness)” value ([5]; KPC-2 WT (Trp 105), replicate 3) was 0.298.
